Data published in patent US8754242B2, “Herbicides” (Syngenta Crop Protection LLC, priority 2007, dated 2014).

Assays:
Type in all cases: in vivo
Avena fatua (AVEFA) [1] = test: Test Example 1 pre-emergence herbicidal activity; details: Avena fatua, 480 h, rate 250 g/ha, evaluated 20 days later, read-out: Pre-emergence activity AVEFA (100=total damage to plant; 0=no damage to plant)
Outline: (§1)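 Plants sown in standard soil in pots; sprayed 1 day after sowing (pre-emergence) or after 10 days' glasshouse cultivation (post-emergence) with aqueous spray of compound formulated in acetone plus Emulsogen EL/N-methylpyrrolidone/dipropylene glycol monomethyl ether/X-77 solution. Damage scored 0–100 (100 = total damage) after 20 days (pre) or 15 days (post).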

[2] = system: Alopecurus myosuroides (ALOMY); test: Test Example 1 pre-emergence herbicidal activity; details: Alopecurus myosuroides, 480 h, rate 250 g/ha, evaluated 20 days later, read-out: Pre-emergence activity ALOMY (100=total damage to plant; 0=no damage to plant)
Outline: as §1

[3] = system: Echinochloa crus-galli (ECHCG); test: Test Example 1 pre-emergence herbicidal activity; details: Echinochloa crus-galli, 480 h, rate 250 g/ha, evaluated 20 days later, read-out: Pre-emergence activity ECHCG (100=total damage to plant; 0=no damage to plant)
Outline: as §1

Setaria faberi (SETFA) [4] = test: Test Example 1 pre-emergence herbicidal activity; details: Setaria faberi, 480 h, rate 250 g/ha, evaluated 20 days later, read-out: Pre-emergence activity SETFA (100=total damage to plant; 0=no damage to plant)
Outline: as §1

[5] = system: Digitaria sanguinalis (DIGSA); test: Test Example 1 pre-emergence herbicidal activity; details: Digitaria sanguinalis, 480 h, rate 250 g/ha, evaluated 20 days later, read-out: Pre-emergence activity DIGSA (100=total damage to plant; 0=no damage to plant)
Outline: as §1

Lolium perenne (LOLPE) [6] = test: Test Example 1 pre-emergence herbicidal activity; details: Lolium perenne, 480 h, rate 250 g/ha, evaluated 20 days later, read-out: Pre-emergence activity LOLPE (100=total damage to plant; 0=no damage to plant)
Outline: as §1

Avena fatua (AVEFA) [7] = test: Test Example 1 post-emergence herbicidal activity; details: 360 h, rate 125 g/ha, evaluated 15 days later, read-out: Post-emergence activity AVEFA (100=total damage to plant; 0=no damage to plant)
Outline: as §1

[8] = system: Alopecurus myosuroides (ALOMY); test: Test Example 1 post-emergence herbicidal activity; details: 360 h, rate 125 g/ha, evaluated 15 days later, read-out: Post-emergence activity ALOMY (100=total damage to plant; 0=no damage to plant)
Outline: as §1

[9] = system: Echinochloa crus-galli (ECHCG); test: Test Example 1 post-emergence herbicidal activity; details: 360 h, rate 125 g/ha, evaluated 15 days later, read-out: Post-emergence activity ECHCG (100=total damage to plant; 0=no damage to plant)
Outline: as §1

Setaria faberi (SETFA) [10] = test: Test Example 1 post-emergence herbicidal activity; details: 360 h, rate 125 g/ha, evaluated 15 days later, read-out: Post-emergence activity SETFA (100=total damage to plant; 0=no damage to plant)
Outline: as §1

[11] = system: Digitaria sanguinalis (DIGSA); test: Test Example 1 post-emergence herbicidal activity; details: 360 h, rate 125 g/ha, evaluated 15 days later, read-out: Post-emergence activity DIGSA (100=total damage to plant; 0=no damage to plant)
Outline: as §1

Lolium perenne (LOLPE) [12] = test: Test Example 1 post-emergence herbicidal activity; details: 360 h, rate 125 g/ha, evaluated 15 days later, read-out: Post-emergence activity LOLPE (100=total damage to plant; 0=no damage to plant)
Outline: as §1

| SMILES | pest or weed control at 250 g/ha (Avena fatua (AVEFA) [1]) | pest or weed control at 250 g/ha [2] | pest or weed control at 250 g/ha [3] | pest or weed control at 250 g/ha (Setaria faberi (SETFA) [4]) | pest or weed control at 250 g/ha [5] | pest or weed control at 250 g/ha (Lolium perenne (LOLPE) [6]) | pest or weed control at 125 g/ha (Avena fatua (AVEFA) [7]) | pest or weed control at 125 g/ha [8] | pest or weed control at 125 g/ha [9] | pest or weed control at 125 g/ha (Setaria faberi (SETFA) [10]) | pest or weed control at 125 g/ha [11] | pest or weed control at 125 g/ha (Lolium perenne (LOLPE) [12]) |
| --- | --- | --- | --- | --- | --- | --- | --- | --- | --- | --- | --- | --- |
| CCc1cc(C)cc(CC)c1C1=C(O)[C@@H]2[C@@H]3O[C@@H](C[C@H]3c3ccc(Cl)cc3)[C@@H]2C1=O [Example T155] | 50% | 60% | 60% | 60% | 70% | 80% | 70% | 90% | 100% | 100% | 100% | 60% |
| CCc1cc(CC)c(C2=C(O)[C@H]3[C@@H](C2=O)[C@@H]2CC[C@H]3O2)c(CC)c1 [Example T5] | 80% | 100% | 100% | 80% | 100% | 100% | 70% | 70% | 100% | 90% | 100% | 80% |
| Cc1cc(C)c(C2=C(O)[C@@H]3[C@@H]4O[C@@H](C[C@H]4c4ncc(C(F)(F)F)cc4C(F)(F)F)[C@@H]3C2=O)c(C)c1 [Example T203] | 20% | 20% | 90% | 70% | 70% | 60% | 10% | 20% | 50% | 0% | 50% | 10% |
| CCc1cc(C)cc(CC)c1C1=C(O)[C@@H]2[C@@H]3O[C@@H](C[C@H]3c3ccc(Cl)cc3C)[C@@H]2C1=O (racemic) [Example T165] | 20% | 70% | 80% | 70% | 50% | 80% | 30% | 80% | 100% | 90% | 70% | 80% |
| CC[C@H]1C[C@@H]2O[C@H]1[C@H]1C(O)=C(c3c(C)cc(C)cc3C)C(=O)[C@H]12 [Example T107] | 90% | 90% | 100% | 100% | 100% | 100% | 90% | 100% | 100% | 100% | 100% | 90% |
| C#CCOC(=O)OC1=C(c2c(C)cc(C)cc2C)C(=O)[C@@H]2[C@H]1[C@H]1CC[C@@H]2O1 (racemic) [Example P3] | 100% | 100% | 100% | 90% | 90% | 100% | 90% | 100% | 100% | 80% | 70% | 100% |
